Among the test systems are T-47D breast; ACHN renal; KM12 colon; U251 CNS; MOLT-4 leukemia; EKVX NSCLC; SK-MEL-28 melanoma; NCI-H460 lung; UO-31 renal; 786-0 renal; HOP-62 NSCLC; COLO 205 colon.
Assay in all cases: DTP human tumour cell line panel, 48 h

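In this assay, cells in 96-well plates receive the compound at five concentrations for 48 hours. Endpoints are linearly interpolated between the surrounding concentrations. At the TGI there is no net growth.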

The TGI is the concentration giving total growth inhibition. A lower TGI goes with more potent growth arrest.

For the molecule `Cc1c2c(n(CCc3ccccc3)c1C)N(C)N=C(C#N)S2(=O)=O`, the TGI in the test with T-47D breast, with ACHN renal, with KM12 colon, in the test with U251 CNS, with MOLT-4 leukemia and with EKVX NSCLC was greater than 100 µM in each case. The TGI in the test with SK-MEL-28 melanoma, with NCI-H460 lung, with UO-31 renal, in the test with 786-0 renal and with HOP-62 NSCLC was greater than 100 µM throughout.

Consider `O=C(/C=C1\C[C@H]2C=Nc3ccccc3C(=O)N2C1)NCCCCNC(=O)/C=C1\C[C@H]2C=Nc3ccccc3C(=O)N2C1`, for which the TGI was 22.3 µM with T-47D breast; 12.6 µM with ACHN renal; 33.3 µM in the test with KM12 colon; 11.3 µM in the test with U251 CNS; 33.7 µM in the test with EKVX NSCLC; 33.3 µM in the test with SK-MEL-28 melanoma. Also, the TGI in the test on NCI-H460 lung amounted to 37.5 µM; in the test with UO-31 renal, 5.77 µM; with 786-0 renal, 3.32 µM; with HOP-62 NSCLC, 38.5 µM; in the test on COLO 205 colon, 14.8 µM.

`O=C(C[n+]1ccccc1)N/N=C(\Cc1nc2ccc([N+](=O)[O-])cc2[nH]c1=O)C(=O)Nc1cc(Cl)c(Cl)cc1Cl`: the TGI with T-47D breast, in the test on ACHN renal, with KM12 colon, in the test with U251 CNS, in the test with MOLT-4 leukemia and with EKVX NSCLC was greater than 100 µM in each case. Moreover, the TGI in the test with SK-MEL-28 melanoma, in the test on NCI-H460 lung, with UO-31 renal, with 786-0 renal and in the test on COLO 205 colon was greater than 100 µM throughout.

`Brc1c(C#CCC(c2ccccc2)(c2ccccc2)c2ccccc2)ccc(C#CCC(c2ccccc2)(c2ccccc2)c2ccccc2)c1Br`: the TGI with T-47D breast, in the test with ACHN renal, in the test on KM12 colon, in the test with U251 CNS, in the test with MOLT-4 leukemia and with EKVX NSCLC was greater than 100 µM each time. In addition, the TGI with SK-MEL-28 melanoma, in the test with NCI-H460 lung, with UO-31 renal, in the test with 786-0 renal and with COLO 205 colon was greater than 100 µM throughout.

On to `O=C1NC(N2CCCCC2)=N/C1=C\c1cccs1`, for which the TGI in the test with T-47D breast, in the test with ACHN renal, in the test on KM12 colon, in the test with U251 CNS, with MOLT-4 leukemia and in the test with EKVX NSCLC was greater than 100 µM throughout. Besides, the TGI with SK-MEL-28 melanoma, with UO-31 renal, with 786-0 renal, with HOP-62 NSCLC and in the test on COLO 205 colon was greater than 100 µM throughout.

Take `O=C1CC(=O)NC(=NN2C(=O)/C(=C/c3ccccc3)N=C2c2ccccc2)N1`: the concentration for total growth inhibition (TGI) in the test on T-47D breast, in the test on ACHN renal, in the test with KM12 colon, in the test on U251 CNS, in the test with MOLT-4 leukemia and with SK-MEL-28 melanoma was greater than 100 µM each time. Further, the TGI with NCI-H460 lung, with UO-31 renal, with 786-0 renal, in the test on HOP-62 NSCLC and with COLO 205 colon was greater than 100 µM in each case.

Regarding `CCOC(=O)c1c(C)cc(=O)n2c1[nH]c1ccccc12`, the TGI with T-47D breast, with ACHN renal, in the test with U251 CNS, in the test with MOLT-4 leukemia, with EKVX NSCLC and with SK-MEL-28 melanoma was greater than 100 µM throughout. Moreover, the TGI in the test with NCI-H460 lung, in the test on UO-31 renal, in the test with 786-0 renal and in the test on COLO 205 colon was greater than 100 µM throughout.

Take `COc1ccc2c(c1)/C(=C\c1c(C)nc3sc(C)cn13)C(=O)N2`: the TGI in the test on T-47D breast is greater than 100 µM; with ACHN renal it was greater than 100 µM; in the test on KM12 colon, 62.4 µM; in the test with U251 CNS, 7.2 µM; in the test with MOLT-4 leukemia, greater than 83.8 µM; in the test with EKVX NSCLC, 44.2 µM. In addition, the TGI was greater than 100 µM in the test with SK-MEL-28 melanoma; 16.5 µM in the test on NCI-H460 lung; greater than 100 µM in the test with UO-31 renal; 72.7 µM in the test with 786-0 renal; greater than 100 µM in the test with HOP-62 NSCLC.

For the molecule `Cc1cc(S(=O)(=O)/N=C(\[N-]S(=O)(=O)c2ccc(Cl)cc2)[n+]2ccc(N(C)C)cc2)c(S)cc1Cl`, the TGI was greater than 100 µM with T-47D breast; greater than 100 µM in the test on ACHN renal; greater than 100 µM with KM12 colon; greater than 100 µM with U251 CNS; 96.5 µM in the test on MOLT-4 leukemia; greater than 100 µM with EKVX NSCLC. For the same molecule, the total growth inhibition concentration (TGI) with SK-MEL-28 melanoma, in the test on NCI-H460 lung, in the test with UO-31 renal, in the test on 786-0 renal and in the test on HOP-62 NSCLC was greater than 100 µM throughout.

Regarding `C/C(=N\Nc1nc2ccccc2n1C)c1cnccn1`, the TGI is greater than 100 µM in the test on T-47D breast; greater than 100 µM in the test with ACHN renal; greater than 33.2 µM in the test on KM12 colon; greater than 100 µM with U251 CNS; greater than 100 µM in the test on MOLT-4 leukemia; greater than 100 µM in the test on EKVX NSCLC. The TGI in the test with NCI-H460 lung is greater than 100 µM; in the test with UO-31 renal, greater than 100 µM; in the test on 786-0 renal it was greater than 39.2 µM; in the test with HOP-62 NSCLC, 37 µM; in the test with COLO 205 colon, greater than 100 µM.

Turning to `O=C1N2CCc3c([nH]c4ccccc34)C23CC2CCCCC12S3` (stereo unspecified), the TGI with T-47D breast, in the test on ACHN renal, in the test on KM12 colon, with U251 CNS, with MOLT-4 leukemia and with EKVX NSCLC was greater than 100 µM each time. In addition, the TGI in the test with SK-MEL-28 melanoma, with UO-31 renal, with 786-0 renal, in the test on HOP-62 NSCLC and in the test on COLO 205 colon was greater than 100 µM in each case.

Turning to `CC(=O)Oc1cc2c(c3ncccc13)OC(C)(C)C2`, the TGI is 81.2 µM in the test with T-47D breast; 23.9 µM in the test with ACHN renal; 30.7 µM in the test on KM12 colon; 31.8 µM with U251 CNS; 29.9 µM with MOLT-4 leukemia; greater than 100 µM with SK-MEL-28 melanoma. In addition, the TGI in the test on NCI-H460 lung is 31.3 µM; with UO-31 renal it was greater than 100 µM; in the test with 786-0 renal, 30.3 µM; in the test with HOP-62 NSCLC, 30.6 µM; in the test on COLO 205 colon, 35 µM.

The values are drawn from PubChem BioAssay (NCI).
